Laboratory results taken from patent publication US20200247815A1, “PYRAZOLYL-CONTAINING TRICYCLIC DERIVATIVE, PREPARATION METHOD THEREFOR AND USE THEREOF” (Jiangsu Hansoh Pharmaceutical Group Co., Ltd., priority 2017, published 2020).

Experiments:
ERK-1 kinase = target: T1, ERK-1 kinase (Homo sapiens, UniProt P27361); experiment: Inhibition of ERK-1 kinase activity (LANCE Ultra TR-FRET); assay type: biochemical; conditions: ERK1 enzyme 0.4 nM, ATP 38.15 μM
T1 construct: purchased Invitrogen PV3311
T1 sequence (P27361 whole entry): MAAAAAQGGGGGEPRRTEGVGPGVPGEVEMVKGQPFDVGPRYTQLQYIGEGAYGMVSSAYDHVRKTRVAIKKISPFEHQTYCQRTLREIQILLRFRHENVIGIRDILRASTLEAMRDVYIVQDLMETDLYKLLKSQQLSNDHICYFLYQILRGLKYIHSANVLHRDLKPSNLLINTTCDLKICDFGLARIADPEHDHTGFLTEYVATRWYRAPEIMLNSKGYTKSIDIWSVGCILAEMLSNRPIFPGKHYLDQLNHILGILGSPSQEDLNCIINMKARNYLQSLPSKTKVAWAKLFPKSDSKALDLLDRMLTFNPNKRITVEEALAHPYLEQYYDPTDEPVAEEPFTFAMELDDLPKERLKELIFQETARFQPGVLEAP
Protocol: (§1) The object of this test example is to determine the inhibition effect of the compound on ERK-1 kinase activity. In vitro ERK-1 kinase analysis was carried out by using LANCE Ultra (Perkin Elmer) method. The reaction (reaction system 10 μL) was conducted by adding 2.5 μL of test compound/DMSO (final 4%, V/V, diluted to 10 concentrations (400 nM to 0.02 nM) using a 1:3 dilution scheme), 5 μL of a mixed solution of ERK1 enzyme (Invitrogen, # PV3311, final concentration: 0.4 nM) and substrate Ulight-MBP peptide (Perkin Elmer, # TRF0109-M, final concentration: 0.5 μM) formulated with a kinase buffer (50 mM Hepes pH 7.4, 10 mM MgCl2, 1 mM EGTA, 0.01% Triton X-100, 2 mM DTT) and 2.5 μL of ATP solution (Invitrogen, # PV3227, final concentration: 38.15 μM) formulated with the same buffer successively to a 384-well plate (Perkin Elmer OPTIPLATE™) and mixing well. The reaction mixture was incubated at room temperature for 60 minutes. The reaction was stopped by adding 1× LANCE Detection buffer (PerkinElmer # CR97-100) diluted with ultra-pure water, mM EDTA (Invitrogen #15575038) and 1 nM Eu-anti-p-MBP (PerkinElmer # TRF0201-M) antibody in 10 μL/well. The plate was incubated at room temperature for 60 minutes. Excitation reading was performed on Synergy H1 Hybird Reader, H1MFD (Biotek) with an excitation wavelength of 320 nm. TR-FRET rate was calculated by dividing the acceptor emission signal (signal value at 665 nM) by the Eu donor emission signal (signal value at 615 nM). The inhibition TR-FRET rate of the well treated by the compound was calculated relative to the Max signal (DMSO control) and Min signal (no enzyme added) control wells on the plate {% inhibition rate=100−[(test compound−Min average)]/(Max average−Min average)×100}. The 10 concentrations of the compound after 4-fold dilution of the reaction system were 100 nM to 0.005 nM. Abs_IC50 value was calculated by using GraphPad prism fits percentage inhibition rate and ten-point concentration data in a 4-parameter non-linear logic formula.

ERK-2 kinase = target: T2, ERK-2 kinase (Homo sapiens, UniProt P28482); experiment: Inhibition of ERK-2 kinase activity (LANCE Ultra TR-FRET); assay type: biochemical; conditions: ERK-2 enzyme 0.08 nM, ATP 38.15 μM
T2 construct: purchased Invitrogen PV3313
T2 sequence (P28482 whole entry): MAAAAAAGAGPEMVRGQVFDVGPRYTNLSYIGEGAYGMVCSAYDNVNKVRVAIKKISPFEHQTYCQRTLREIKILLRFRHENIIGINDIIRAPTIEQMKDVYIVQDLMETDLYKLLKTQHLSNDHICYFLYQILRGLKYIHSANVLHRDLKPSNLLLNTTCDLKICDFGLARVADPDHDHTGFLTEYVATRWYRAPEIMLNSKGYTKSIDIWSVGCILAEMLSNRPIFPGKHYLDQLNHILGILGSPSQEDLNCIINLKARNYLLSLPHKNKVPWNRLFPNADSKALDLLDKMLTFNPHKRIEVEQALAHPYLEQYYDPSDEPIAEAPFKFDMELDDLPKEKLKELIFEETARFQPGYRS
Protocol: as §1, with “ERK-2” for “ERK-1”, “ERK-2” for “ERK1”, “PV3313,” for “PV3311,”, “0.08” for “0.4”, “EGTA” for “EGTA,”, “IX” for “1×”

SMILES | IC50 (ERK-1 kinase) [nM] | IC50 (ERK-2 kinase) [nM]
C[C@@H](NC(=O)c1nc2cc3c(-c4ccncn4)n[nH]c3cc2[nH]1)c1ccccc1 [Example 57, (R)—N-(1-phenylethyl)-3-(pyrimidin-4-yl)-1,7-dihydroimidazo[4,5-f]indazole-6-carboxamide] | 3.51 | 1.43
C[C@@H](NC(=O)c1nc2cc3c(-c4ccnc(F)c4)n[nH]c3cc2[nH]1)c1ccccc1 [Example 37, (R)-3-(2-fluoropyridin-4-yl)-N-(1-phenylethyl)-1,7-dihydroimidazo[4,5-f]indazole-6-carboxamide] | 0.52 | 0.18
C[C@@H](NC(=O)c1nc2cc3c(C4=CCC(=O)CC4)n[nH]c3cc2[nH]1)c1ccccc1 [Example 94, (R)-3-(4-oxocyclohex-1-en-1-yl)-N-(1-phenylethyl)-1,7-dihydroimidazo[4,5-f]indazole-6-carboxamide] | 2.24 | 5.85
COc1ccc(-c2n[nH]c3cc4[nH]c(C(=O)N[C@H](C)c5ccccc5)nc4cc23)cc1 [Example 95, (R)-3-(4-methoxyphenyl)-N-(1-phenylethyl)-1,7-dihydroimidazo[4,5-f]indazole-6-carboxamide] | 4.42 | 2.17
CC(C)c1cccc([C@@H](C)NC(=O)c2nc3cc4c(-c5ccncc5)n[nH]c4cc3[nH]2)c1 [Example 98, (R)—N-(1-(3-Isopropylphenyl)ethyl)-3-(pyridin-4-yl)-1,7-dihydroimidazo[4,5-f]indazole-6-carboxamide] | 3.32 | 1.02
C[C@@H](NC(=O)c1nc2cc3c(-c4cc[n+]([O-])cc4)n[nH]c3cc2[nH]1)c1ccccc1 [Example 97, (R)-4-(6-((1-phenylethyl)carbamoyl)-1,7-dihydroimidazo[4,5-f]indazol-3-yl)pyridine-N-oxide] | 0.75 | 0.3
C[C@@H](NC(=O)c1nc2cc3c(-c4ccncc4)n[nH]c3cc2[nH]1)c1ccccn1 [Example 9, (R)—N-(1-(pyridin-2-yl)ethyl)-3-(pyridin-4-yl)-1,7-dihydroimidazo[4,5-f]indazole-6-carboxamide] | 8.6 | 3.13
O=C(NCc1ccccc1)c1nc2cc3c(-c4ccncc4)n[nH]c3cc2[nH]1 [Example 114, N-benzyl-3-(pyridin-4-yl)-1,7-dihydroimidazo[4,5-f]indazole-6-carboxamide] | 2.86 | 1.07
CC(NC(=O)c1nc2cc3c(-c4ccncc4)n[nH]c3cc2[nH]1)c1cnccn1 (stereo not shown) [Example 51, N-(1-(pyrazin-2-yl)ethyl)-3-(pyridin-4-yl)-1,7-dihydroimidazo[4,5-f]indazole-6-carboxamide] | 2.42 | 0.91
CN(NC(=O)c1nc2cc3c(-c4ccncc4)n[nH]c3cc2[nH]1)c1ccccc1 [Example 77, N′-methyl-N′-phenyl-3-(pyridin-4-yl)-1,7-dihydroimidazo[4,5-f]indazole-6-carbohydrazide] | 2.18 | 0.85
C[C@@H](NC(=O)c1nc2cc3c(-c4ccncc4)n[nH]c3c(Cl)c2[nH]1)c1ccccc1 [Example 46, (R)-8-chloro-N-(1-phenylethyl)-3-(pyridin-4-yl)-1,7-dihydroimidazo[4,5-f]indazole-6-carboxamide] | 3.3 | 1.7
CN(C)C[C@@H](NC(=O)c1nc2cc3c(-c4ccncc4)n[nH]c3cc2[nH]1)c1ccccc1 [Example 90, (S)—N-(2-(dimethylamino)-1-phenylethyl)-3-(pyridin-4-yl)-1,7-dihydroimidazo[4,5-f]indazole-6-carboxamide] | 1.77 | 1.67
CC(C)Oc1ccc(-c2n[nH]c3cc4[nH]c(C(=O)N[C@H](C)c5ccccc5)nc4cc23)cn1 [Example 85, (R)-3-(6-isopropoxypyridin-3-yl)-N-(1-phenylethyl)-1,7-dihydroimidazo[4,5-f]indazole-6-carboxamide] | 3.43 | 3.08
Cc1ccc([C@@H](C)NC(=O)c2nc3cc4c(-c5ccncc5)n[nH]c4cc3[nH]2)cc1 [Example 6, (R)-3-(pyridin-4-yl)-N-(1-(p-tolyl)ethyl)-1,7-dihydroimidazo[4,5-f]indazole-6-carboxamide] | 2.09 | 0.84
C[C@@H](NC(=O)c1nc2cc3c(-c4ccncc4)n[nH]c3cc2[nH]1)c1ccc(F)c(Cl)c1 [Example 63, (R)—N-(1-(3-chloro-4-fluorophenyl)ethyl)-3-(pyridin-4-yl)-1,7-dihydroimidazo[4,5-f]indazole-6-carboxamide] | 2.93 | 2.88
C[C@H](CNC(=O)c1nc2cc3c(-c4ccncc4)n[nH]c3cc2[nH]1)c1ccccc1 [Example 67, (S)—N-(2-phenylpropyl)-3-(pyridin-4-yl)-1,7-dihydroimidazo[4,5-f]indazole-6-carboxamide] | 1.44 | 0.69
C[C@@H](CNC(=O)c1nc2cc3c(-c4ccncc4)n[nH]c3cc2[nH]1)c1ccccc1 [Example 66, (R)—N-(2-phenylpropyl)-3-(pyridin-4-yl)-1,7-dihydroimidazo[4,5-f]indazole-6-carboxamide] | 1.52 | 0.83
O=C(CNC(=O)c1nc2cc3c(-c4ccncc4)n[nH]c3cc2[nH]1)c1ccccc1 [Example 72, N-(2-oxo-2-phenylethyl)-3-(pyridin-4-yl)-1,7-dihydroimidazo[4,5-f]indazole-6-carboxamide] | 2.5 | 0.24
O=C(N[C@H](CO)c1ccccc1)c1nc2cc3c(-c4ccncc4)n[nH]c3cc2[nH]1 [Example 20, (S)—N-(2-hydroxy-1-phenylethyl)-3-(pyridin-4-yl)-1,7-dihydroimidazo[4,5-f]indazole-6-carboxamide] | 0.22 | 0.06
C[C@@H](NC(=O)c1nc2cc3c(-c4ccncc4)n[nH]c3cc2[nH]1)c1ccc(Br)cc1 [Example 15, (R)—N-(1-(4-bromophenyl)ethyl)-3-(pyridin-4-yl)-1,7-dihydroimidazo[4,5-f]indazole-6-carboxamide] | 6.41 | 2.72
O=C(N[C@H](CNCC(F)F)c1ccccc1)c1nc2cc3c(-c4ccncc4)n[nH]c3cc2[nH]1 [Example 89, (S)—N-(2-((2,2-difluoroethyl)amino)-1-phenylethyl)-3-(pyridin-4-yl)-1,7-dihydroimidazo[4,5-f]indazole-6-carboxamide] | 1.31 | 0.87
CC[C@@H](NC(=O)c1nc2cc3c(-c4ccncc4)n[nH]c3cc2[nH]1)c1ccccc1 [Example 17, (R)—N-(1-phenylpropyl)-3-(pyridin-4-yl)-1,7-dihydroimidazo[4,5-f]indazole-6-carboxamide] | 2.34 | 1.15
COc1ccc(CNC(=O)c2nc3cc4c(-c5ccncc5)n[nH]c4cc3[nH]2)cc1OC [Example 3, N-(3,4-dimethoxybenzyl)-3-(pyridin-4-yl)-1,7-dihydroimidazo[4,5-f]indazole-6-carboxamide] | 5.48 | 3.95
